Where two headings read alike, the source gives them in different places.
Tests used:
L-phenylserine aldolase [1] = test: Substrate specificity of purified L-phenylserine aldolase under the standard assay conditions; details: compound as substrate; for Relative activity: activity to DL-threo-β-phenyl serine taken as 100, purified enzyme, standard assay conditions
L-phenylserine aldolase [2] = test: Effect of cations on the activity of L-phenylserine aldolase; assay type: biochemical, Pseudomonas putida biovar A24-1 strain; details: for activation of the enzyme by cation (in words): monovalent or divalent cations
L-phenylserine aldolase [3] = assay type: biochemical, Pseudomonas putida biovar A24-1 strain; details: compound as substrate
Experimental: E. coli JM109 strain was transformed with the plasmid pKK-PSA1 obtained in Example 4. The resulting transformant was inoculated to liquid LB medium (Bacto-tryptone 10 g/l, Bacto-yeast extract 5 g/l, sodium chloride 10 g/l; pH 7.2) containing ampicillin (50 mg/l), and cultured at 30° C. overnight. Then, an aliquot of the culture was inoculated to 2×YT medium (Bacto-tryptone 20 g/l, Bacto-yeast extract 10 g/l, sodium chloride 10 g/l; pH 7.2) containing ampicillin (50 mg/l). The bacterial cells were cultured at 30° C., and then the induction was achieved by treating the cells with 0.1 mM IPTG for 4 hours. The bacterial cells were harvested by centrifugation. The cells were suspended in 100 mM TES-NaOH buffer (pH 7.2) containing 0.02% 2-mercaptoethanol, 2 mM EDTA, and 20 μM pyridoxal-5′-phosphate. The cell suspension was sonicated in a closed sonicator UCD-200™ (Cosmo Bio) for 3 minutes to lyse the bacterial cells. The bacterial cell lysate was centrifuged and the resulting supernatant was used as cell-free extract. The activity of L-phenylserine aldolase was assayed using the cell-free extract. The specific activity was confirmed to be 20.0 U/mg.
When the activity to DL-threo-phenyl serine was taken as 100%, the relative activity was estimated to be 31.3%.

[4] = compound 50 mM, preincubated with enzyme at 30° C. for 10 minutes, […]
[5] = compound 0.1 mM, preincubated with enzyme at 30° C. for 10 minutes, activity in the absence of cation taken as 100
[6] = compound 0.1 mM, preincubated with enzyme at 30° C. for 10 minutes, […]

Molecule: N[C@@H](C(=O)O)[C@@H](O)c1ccccc1 [D-threo-phenyl serine]
- activity to the compound (L-phenylserine aldolase [1]): undetectable

Molecule: N[C@@H](C(=O)O)[C@H](O)c1ccccc1 (racemic) [DL-erythro-β-phenyl serine]
- Relative activity (L-phenylserine aldolase [1]): 130

Molecule: Cl.N [Ammonium chloride]
- Relative activity (L-phenylserine aldolase [2]; [4]): 92%

Molecule: C[C@@H](O)[C@H](N)C(=O)O [L-threonine]
- enzymatic activity to the compound (in words) (L-phenylserine aldolase [1]): low enzymatic activity
- Relative activity (L-phenylserine aldolase [1]): 2.1

Molecule: Manganese chloride
- Relative activity (L-phenylserine aldolase [2]; [5]): 92%

Molecule: DL-β-thienyl serine
- Relative activity (L-phenylserine aldolase [1]): 170

Molecule: O=C(O)[C@@H](O)Cc1ccccc1 [L-phenyllactic acid]
- Relative activity (L-phenylserine aldolase [1]): 0

Molecule: [Cl-].[Cl-].[Zn+2] [Zinc chloride]
- Relative activity (L-phenylserine aldolase [2]; [6]): 92%

Molecule: C[C@H](O)[C@H](N)C(=O)O [L-allo-threonine]
- enzymatic activity to the compound (in words) (L-phenylserine aldolase [1]): low enzymatic activity
- Relative activity (L-phenylserine aldolase [1]): 8

Molecule: NCC(O)c1ccccc1 (racemic) [DL-β-hydroxyphenylethylamine]
- Relative activity (L-phenylserine aldolase [1]): 0

Molecule: N[C@@H](C(=O)O)[C@@H](O)c1ccccc1 (racemic) [DL-threo-β-phenyl serine]
- Relative activity (L-phenylserine aldolase [1]): 100

Molecule: O=S(=O)([O-])[O-].[Cu+2] [Copper sulfate]
- Relative activity (L-phenylserine aldolase [2]): 89%

Molecule: [Ba+2].[Cl-].[Cl-] [Barium chloride]
- Relative activity (L-phenylserine aldolase [2]; [5]): 90%

Molecule: [Cl-].[K+] [Potassium chloride]
- Relative activity (L-phenylserine aldolase [2]; [4]): 94%

Molecule: N[C@H](CO)C(=O)O [D-serine]
- Relative activity (L-phenylserine aldolase [1]): 0

Molecule: [Cl-].[Na+] [Sodium chloride]
- Relative activity (L-phenylserine aldolase [2]; [4]): 88%

Molecule: C[C@@H](O)[C@@H](N)C(=O)O [D-allo-threonine]
- Relative activity (L-phenylserine aldolase [1]): 0

Molecule: N[C@@H](C(=O)O)[C@H](O)c1ccccc1 [D-erythro-phenyl serine]
- activity to the compound (L-phenylserine aldolase [1]): undetectable

Molecule: O=S(=O)([O-])[O-].[Fe+2] [Ferric (II) sulfate]
- Relative activity (L-phenylserine aldolase [2]): 91%

Molecule: [K+] [potassium ion]
- activation of the enzyme by cation (in words) (L-phenylserine aldolase [2]): not activated

Molecule: [Cl][Co][Cl] [Cobalt chloride]
- Relative activity (L-phenylserine aldolase [2]; [6]): 98%

Molecule: [Cl-].[Cl-].[Mg+2] [Magnesium chloride]
- Relative activity (L-phenylserine aldolase [2]): 98%

Molecule: CCC(O)C(N)C(=O)O (racemic) [DL-β-hydroxynorvaline]
- Relative activity (L-phenylserine aldolase [1]): 0

Molecule: N[C@@H](C(=O)O)[C@H](O)C1CCCCC1 (racemic)
- Relative activity (L-phenylserine aldolase [3]; activity to DL-threo-phenyl serine taken as 100%): 31.3%
- enzymatic activity to the substrate (L-phenylserine aldolase [3]; cell-free extract of Example 5): 6.26 U/mg

Molecule: C[C@H](O)[C@@H](N)C(=O)O [D-threonine]
- Relative activity (L-phenylserine aldolase [1]): 0

Molecule: N[C@@H](CO)C(=O)O [L-serine]
- enzymatic activity to the compound (in words) (L-phenylserine aldolase [1]): almost no activity
- Relative activity (L-phenylserine aldolase [1]): 0

Molecule: [Mn+2] [manganese ion]
- activation of the enzyme by cation (in words) (L-phenylserine aldolase [2]): not activated

Molecule: N [ammonium ion]
- activation of the enzyme by cation (in words) (L-phenylserine aldolase [2]): not activated
